From US7642253B2, “Histone deacetylase inhibitors” (Takeda San Diego, Inc., priority 2005, dated 2010) come the findings set out here.

For this assay, the target named is HDAC2 (Homo sapiens, UniProt Q92769). As to the kind of experiment: HDAC2 fluorescence inhibition assay (tBoc-Lys(Ac)-AMC).
HDAC2, sequence (Q92769 with tags, fused parts or gaps): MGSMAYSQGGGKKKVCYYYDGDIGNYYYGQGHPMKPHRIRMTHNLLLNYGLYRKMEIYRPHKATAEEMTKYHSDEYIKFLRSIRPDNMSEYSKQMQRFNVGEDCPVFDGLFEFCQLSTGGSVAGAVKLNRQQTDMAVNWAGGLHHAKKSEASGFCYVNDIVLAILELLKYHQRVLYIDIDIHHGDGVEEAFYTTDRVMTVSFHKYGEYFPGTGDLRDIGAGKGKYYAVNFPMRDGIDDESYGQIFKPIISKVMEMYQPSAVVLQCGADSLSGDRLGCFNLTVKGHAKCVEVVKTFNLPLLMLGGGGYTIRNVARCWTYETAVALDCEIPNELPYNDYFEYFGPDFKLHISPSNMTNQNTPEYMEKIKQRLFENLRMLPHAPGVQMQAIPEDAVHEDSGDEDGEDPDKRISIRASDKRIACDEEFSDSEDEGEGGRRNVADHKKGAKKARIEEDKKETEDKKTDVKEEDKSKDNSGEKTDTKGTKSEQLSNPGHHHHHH
Broadly, the IC50 is the concentration needed to halve the response being measured. High values mean weaker potency, low ones greater potency. For `CNC1=Nc2ccccc2S(=O)(=O)N1Cc1ccc(C(=O)Nc2ccccc2N)cc1` [Example 6, N-(2-Amino-phenyl)-4-(3-methylamino-1,1-dioxo-1H-1λ^6-benzo[1,2,4]thiadiazin-2-ylmethyl)-benzamide], the IC50 lay within 100 to 500 nM.

In turn, `Nc1ccccc1NC(=O)c1ccc(CN2C(=O)Nc3ccccc3S2(=O)=O)s1` [Example 34, 5-(1,1,3-Trioxo-3,4-dihydro-1H-1λ^6-benzo[1,2,4]thiadiazin-2-ylmethyl)-thiophene-2-carboxylic acid(2-amino-phenyl)-amide] gave a 50% inhibitory concentration (IC50) of 50 to 100 nM. In the case of `COc1ccc2c(c1)NC(=S)N(Cc1ccc(C(=O)Nc3ccccc3N)cc1)S2(=O)=O` [Example 12, N-(2-Amino-phenyl)-4-(6-methoxy-1,1-dioxo-3-thioxo-3,4-dihydro-1H-1λ^6-benzo[1,2,4]thiadiazin-2-ylmethyl)-benzamide], the 50% inhibitory concentration (IC50) was under 50 nM. `Nc1ccccc1NC(=O)c1ccc(Cn2c(=O)ncc3ccccc32)cc1` [Example 8, N-(2-aminophenyl)-4-((2-oxoquinazolin-1(2H),-yl)methyl)benzamide] came in with an IC50 of 100 to 500 nM. For `Nc1ccccc1NC(=O)c1ccc(CN2C(=O)Nc3ccccc3S2(=O)=O)cc1` [Example 1, N-(2-Amino-phenyl)-4-(1,1,3-trioxo-3,4-dihydro-1H-1λ^6-benzo[1,2,4]thiadiazin-2-ylmethyl)-benzamide] the value was under 50 nM; for `Nc1ccccc1NC(=O)c1ccc(CN2C(=O)Nc3ccc(-c4ccncc4)cc3S2(=O)=O)cc1` [Example 27, N-(2-Amino-phenyl)-4-(1,1,3-trioxo-7-pyridin-4-yl-3,4-dihydro-1H-1λ^6-benzo[1,2,4]thiadiazin-2-ylmethyl)-benzamide], under 50 nM. The molecule `Nc1ccccc1NC(=O)c1ccc(CN2C(=O)Nc3ccccc3S2(=O)=O)c(F)c1` [Example 25, N-(2-Amino-phenyl)-3-fluoro-4-(1,1,3-trioxo-3,4-dihydro-1H-1λ^6-benzo[1,2,4]thiadiazin-2-ylmethyl)-benzamide] registered an IC50 of under 50 nM. The molecule `Nc1ccccc1NC(=O)c1ccc(CN2C(=O)NCc3ccccc32)cc1` [Example 3, N-(2-aminophenyl)-4-((2-oxo-3,4-dihydroquinazolin-1(2H),-yl)methyl)benzamide] came in with an IC50 of 100 to 500 nM. As for `Nc1ccccc1NC(=O)c1ccc(CN2C(=O)Nc3ccc(-c4cccnc4)cc3S2(=O)=O)cc1` [Example 29, N-(2-Amino-phenyl)-4-(1,1,3-trioxo-7-pyridin-3-yl-3,4-dihydro-1H-1λ^6-benzo[1,2,4]thiadiazin-2-ylmethyl)-benzamide], the IC50 was under 50 nM.

Regarding `Nc1ccccc1NC(=O)c1ccc(CN2C(=O)Nc3ccc(-c4ccsc4)cc3S2(=O)=O)cc1` [Example 26, N-(2-Amino-phenyl)-4-(1,1,3-trioxo-7-thiophen-3-yl-3,4-dihydro-1H-1λ^6-benzo[1,2,4]thiadiazin-2-ylmethyl)-benzamide], the half-inhibitory concentration (IC50) was under 50 nM.
